According to US10703764B2, “Benzopiperazine compositions as BET bromodomain inhibitors” (FORMA Therapeutics, Inc., priority 2013, dated 2020):

Assays:
[1] = tested on: MV4-11 cells; experiment: Oncology cell growth assay (3-day proliferation, CellTiter-Glo); type: cell-based; conditions: Homo sapiens, MV4-11, 72 h, AML cell line MV4-11, 72 hours, compounds grouped by IC50 range, read-out: MV4-11 IC50 (inhibition of proliferation, gIC50)
In short: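 Luminescence from CellTiter-Glo served as the growth read-out after MV4-11 cells (3000/well) were cultured with compound for 72 hours. Final concentrations spanned 10 to 0.0045 μM in 3-fold steps. gIC50 values were derived by four-parameter logistic fitting relative to DMSO and cell-free controls.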

[2] = target: T1, BRD4 BD2 (Homo sapiens, UniProt O60885); experiment: AlphaScreen binding assay, BRD4 Bromodomain 2
T1 construct: made in house
In short: (§1)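 An AlphaScreen competition format was used with His-BRD4 BD1 or BD2 and biotin-H4 K5/8/12/16-acetyl peptide, each at matched final levels of 50 nM (BD1) or 100 nM (BD2). Incubation in HEPES/NaCl buffer with 0.1% BSA and 0.01% Triton X-100 ran ≥1 h before IC50 determination.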

[3] = target: T2, BRD4 BD1 (Homo sapiens, UniProt O60885); experiment: AlphaScreen binding assay, BRD4 Bromodomain 1
T2 construct: made in house
In short: as §1

| Structure (SMILES) | IC50 [1] [nM] | IC50 [2] [nM] | IC50 [3] [nM] |
| --- | --- | --- | --- |
| CC(=O)N1c2ccc(-c3ccc(S(=O)(=O)N4CCC4)cc3)cc2N(C(=O)c2ccco2)C[C@@H]1C [Example I-289] | 100 to 500 | < 50 | 100 to 1000 |
| CC(=O)N1c2ccc(-c3ccc(C(=O)NCCO)cc3)cc2N(C(=O)c2ccco2)C[C@@H]1C [Example I-290] | 100 to 500 | < 50 | 1000 to 10000 |
| CC(=O)N1c2ccc(-c3ccc(S(=O)(=O)C4CC4)cc3)cc2N(C(=O)c2ccco2)C[C@@H]1C [Example I-291] | 100 to 500 | < 50 | 100 to 1000 |
| CC(=O)N1c2ccc(-c3ccc(C(=O)NC4CC4)cc3)cc2N(C(=O)c2ccco2)C[C@@H]1C [Example I-292] | 100 to 500 | > 500 | 1000 to 10000 |
| CC(=O)N1c2ccc(-c3ccc(S(=O)(=O)NCCO)cc3)cc2N(C(=O)c2ccco2)C[C@@H]1C [Example I-293] | 100 to 500 | < 50 | 1000 to 10000 |
| CC(=O)N1c2ccc(-c3ccc(S(C)(=O)=O)cc3)cc2N(C(=O)OC(C)C)C[C@@H]1C [Example I-294] | 100 to 500 | < 50 | 100 to 1000 |
| CC(=O)N1c2ccc(-c3ccc(N)nc3)cc2N(C(=O)c2ccco2)C[C@@H]1C [Example I-295] | 100 to 500 | < 50 | 1000 to 10000 |
| CC(=O)N1c2ccc(-c3ccc4c(c3)CCN4S(C)(=O)=O)cc2N(C(=O)c2ccco2)C[C@@H]1C [Example I-299] | 100 to 500 | 50 to 500 | 100 to 1000 |
| CC(=O)N1c2ccc(-c3cnn(CCS(C)(=O)=O)c3)cc2N(C(=O)OC(C)C)C[C@@H]1C [Example I-303] | 100 to 500 | 50 to 500 | < 100 |
| CC(=O)N1c2ccc(-c3cnn(CC(N)=O)c3)cc2N(C(=O)OC(C)C)C[C@@H]1C [Example I-304] | 100 to 500 | 50 to 500 | 100 to 1000 |
| CC(=O)N1c2ccc(-c3cnn(CC(=O)N(C)C)c3)cc2N(C(=O)OC(C)C)C[C@@H]1C [Example I-305] | 100 to 500 | 50 to 500 | 100 to 1000 |
| CC(=O)N1c2ccc(-c3cnn(CCN4CCOCC4)c3)cc2N(C(=O)OC(C)C)C[C@@H]1C [Example I-306] | 100 to 500 | 50 to 500 | 100 to 1000 |
| CC(=O)N1c2ccc(-c3cnn(C4CCOCC4)c3)cc2N(C(=O)OC(C)C)C[C@@H]1C [Example I-307] | 100 to 500 | 50 to 500 | 100 to 1000 |
| CC(=O)N1c2ccc(-c3cnn(CC4CC4)c3)cc2N(C(=O)OC(C)C)C[C@@H]1C [Example I-308] | 100 to 500 | 50 to 500 | 100 to 1000 |
| CC(C)OC(=O)N1C[C@H](C)N(C(=O)C2CC2)c2ccc(-c3cnn(CCS(C)(=O)=O)c3)cc21 [Example I-309] | > 500 | 50 to 500 | 100 to 1000 |
| CC(C)OC(=O)N1C[C@H](C)N(C(=O)C2CC2)c2ccc(-c3cnn(CC(N)=O)c3)cc21 [Example I-310] | > 500 | 50 to 500 | 100 to 1000 |

| Structure (SMILES) | IC50 [1] [nM] | IC50 [2] [nM] | IC50 [3] [nM] |
| --- | --- | --- | --- |
| CC(C)OC(=O)N1C[C@H](C)N(C(=O)C2CC2)c2ccc(-c3cnn(CCN4CCOCC4)c3)cc21 [Example I-312] | 100 to 500 | 50 to 500 | 100 to 1000 |
| CC(C)OC(=O)N1C[C@H](C)N(C(=O)C2CC2)c2ccc(-c3cnn(C4CCOCC4)c3)cc21 [Example I-313] | 100 to 500 | 50 to 500 | 100 to 1000 |
| COCCn1cc(-c2ccc3c(c2)N(C(=O)OC(C)C)C[C@H](C)N3C(=O)C2CC2)cn1 [Example I-314] | 100 to 500 | 50 to 500 | 100 to 1000 |
| CC(C)OC(=O)N1C[C@H](C)N(C(=O)C2CC2)c2ccc(-c3cnn(CCO)c3)cc21 [Example I-315] | 100 to 500 | 50 to 500 | 100 to 1000 |
| CC(C)OC(=O)N1C[C@H](C)N(C(=O)C2CC2)c2ccc(-c3cnn(CC4CC4)c3)cc21 [Example I-316] | 100 to 500 | 50 to 500 | 100 to 1000 |
| CC(C)OC(=O)N1C[C@H](C)N(C(=O)C2CC2)c2ccc(-c3cnn(C4COC4)c3)cc21 [Example I-317] | 100 to 500 | 50 to 500 | 100 to 1000 |
| COC(=O)N1c2ccc(-c3cnn(CCS(C)(=O)=O)c3)cc2N(C(=O)OC(C)C)C[C@@H]1C [Example I-318] | > 500 | 50 to 500 | 100 to 1000 |
| COC(=O)N1c2ccc(-c3cnn(CC(N)=O)c3)cc2N(C(=O)OC(C)C)C[C@@H]1C [Example I-319] | > 500 | 50 to 500 | 100 to 1000 |
| COC(=O)N1c2ccc(-c3cnn(CC(=O)N(C)C)c3)cc2N(C(=O)OC(C)C)C[C@@H]1C [Example I-320] | > 500 | 50 to 500 | 100 to 1000 |
| COC(=O)N1c2ccc(-c3cnn(CCN4CCOCC4)c3)cc2N(C(=O)OC(C)C)C[C@@H]1C [Example I-321] | 100 to 500 | 50 to 500 | 100 to 1000 |
| COC(=O)N1c2ccc(-c3cnn(C4CCOCC4)c3)cc2N(C(=O)OC(C)C)C[C@@H]1C [Example I-322] | 100 to 500 | 50 to 500 | 100 to 1000 |
| COCCn1cc(-c2ccc3c(c2)N(C(=O)OC(C)C)C[C@H](C)N3C(=O)OC)cn1 [Example I-323] | 100 to 500 | 50 to 500 | 100 to 1000 |
| COC(=O)N1c2ccc(-c3cnn(CCO)c3)cc2N(C(=O)OC(C)C)C[C@@H]1C [Example I-324] | 100 to 500 | 50 to 500 | 100 to 1000 |
| COC(=O)N1c2ccc(-c3cnn(CC4CC4)c3)cc2N(C(=O)OC(C)C)C[C@@H]1C [Example I-325] | > 500 | 50 to 500 | 100 to 1000 |
| COC(=O)N1c2ccc(-c3cnn(C4COC4)c3)cc2N(C(=O)OC(C)C)C[C@@H]1C [Example I-326] | > 500 | 50 to 500 | 100 to 1000 |

Results, then the compound that gave them:

| IC50 [1] [nM] | IC50 [2] [nM] | IC50 [3] [nM] | Structure (SMILES) |
| --- | --- | --- | --- |
| 100 to 500 | 50 to 500 | 100 to 1000 | CC(=O)N1c2ccc(-c3cnn(CC(C)(C)O)c3)cc2N(C(=O)OC(C)C)C[C@@H]1C [Example I-327] |
| 100 to 500 | 50 to 500 | 100 to 1000 | CC(C)OC(=O)N1C[C@H](C)N(C(=O)C2CC2)c2ccc(-c3cnn(CC(C)(C)O)c3)cc21 [Example I-328] |
| 100 to 500 | 50 to 500 | 100 to 1000 | COC(=O)N1c2ccc(-c3cnn(CC(C)(C)O)c3)cc2N(C(=O)OC(C)C)C[C@@H]1C [Example I-329] |
| 100 to 500 | 50 to 500 | 100 to 1000 | CC(=O)N1c2ccc(-c3cnn(C(C)(C)C)c3)cc2N(C(=O)OC(C)C)C[C@@H]1C [Example I-330] |
| > 500 | > 500 | 100 to 1000 | CC(C)OC(=O)N1C[C@H](C)N(C(=O)C2CC2)c2ccc(-c3cnn(C(C)(C)C)c3)cc21 [Example I-331] |
| > 500 | > 500 | 100 to 1000 | COC(=O)N1c2ccc(-c3cnn(C(C)(C)C)c3)cc2N(C(=O)OC(C)C)C[C@@H]1C [Example I-332] |
| > 500 | 50 to 500 | 100 to 1000 | CC(=O)N1c2ccc(-c3cnn(C(F)F)c3)cc2N(C(=O)OC(C)C)C[C@@H]1C [Example I-336] |
| > 500 | > 500 | 100 to 1000 | CC(=O)N1c2ccc(-c3c[nH]nc3C)cc2N(C(=O)OC(C)C)CC1C (stereo not drawn) [Example I-337] |
| > 500 | 50 to 500 | 100 to 1000 | CC(=O)N1c2ccc(-c3cn(C)nc3C)cc2N(C(=O)OC(C)C)C[C@@H]1C [Example I-338] |
| 100 to 500 | 50 to 500 | 100 to 1000 | CC(=O)N1c2ccc(-c3ccc(NS(C)(=O)=O)cc3)cc2N(C(=O)OC(C)C)C[C@@H]1C [Example I-345] |
| 100 to 500 | 50 to 500 | 100 to 1000 | CC(=O)N1c2ccc(-c3ccc(N(C)S(C)(=O)=O)cc3)cc2N(C(=O)OC(C)C)C[C@@H]1C [Example I-346] |
| < 100 | < 50 | < 100 | CC(=O)N1c2ccc(-c3ccc(NS(=O)(=O)C4CC4)cc3)cc2N(C(=O)OC(C)C)C[C@@H]1C [Example I-347] |
| 100 to 500 | < 50 | 100 to 1000 | CC(=O)N1c2ccc(-c3ccc4c(c3)CCN4S(C)(=O)=O)cc2N(C(=O)OC(C)C)C[C@@H]1C [Example I-348] |
| 100 to 500 | 50 to 500 | 100 to 1000 | CC(=O)N1c2ccc(-c3ccc(NS(C)(=O)=O)cc3)cc2N(C(=O)C2CC2)C[C@@H]1C [Example I-349] |
| 100 to 500 | 50 to 500 | 1000 to 10000 | CC(=O)N1c2ccc(-c3ccc(N(C)S(C)(=O)=O)cc3)cc2N(C(=O)C2CC2)C[C@@H]1C [Example I-350] |
| 100 to 500 | 50 to 500 | 100 to 1000 | CC(=O)N1c2ccc(-c3ccc(NS(=O)(=O)C4CC4)cc3)cc2N(C(=O)C2CC2)C[C@@H]1C [Example I-351] |
| < 100 | < 50 | < 100 | CC(=O)N1c2ccc(-c3ccc4c(c3)CCN4S(C)(=O)=O)cc2N(C(=O)C2CC2)C[C@@H]1C [Example I-352] |
| 100 to 500 | 50 to 500 | 100 to 1000 | CC(=O)N1c2ccc(-c3cnn(C4CCNCC4)c3)cc2N(C(=O)OC(C)C)C[C@@H]1C [Example I-353] |
| 100 to 500 | 50 to 500 | 100 to 1000 | CC(C)OC(=O)N1C[C@H](C)N(C(=O)C2CC2)c2ccc(-c3cnn(C4CCNCC4)c3)cc21 [Example I-354] |
